Results on two molecules are retold here after US10947296B2, “Fusion protein Slit2D2(C386S)-HSA and use thereof in treatment of fibrotic diseases” (SUZHOU THINKING POWER BIOTECHNOLOGY CO., LTD., priority 2016, dated 2021).

The test system of one series is pulmonary fibrosis model. The series is described as follows: Efficacy on bleomycin-induced pulmonary fibrosis model. In kind it is in vivo. Also noted: body weight of the animals (Mean ± SEM) / Weight of the left lung (Mean ± SEM) / Volume of the left lung (Mean ± SEM): unit not given here. Particulars: for body weight of the animals (Mean ± SEM): PFD 50mpk BID PO. The procedure: Animals were anesthetized by inhaling isoflurane. After confirmation of anesthesia, the animals were sterilized, then the neck skin was cut, the muscles were bluntly separated to expose the trachea, and bleomycin (dosage: 3 mg/kg, volume: 1.0 mL/kg) was directly injected between the tracheal rings. After the operation, the animals were placed in a 37° C. electric blanket to keep warm until the animals were completely awakened. After confirming that they were able to eat and drink freely, the animals were returned to the cage for normal feeding.
In this experiment, there were four groups, i.e., model group (experimental group-1, […]), PFD group (experimental group-2, n=6), Slit2D2(C386S)-HSA-1 mg/kg (experimental group-3, n=6), and Slit2D2(C386S)-HSA-5 mg/kg (experimental group-4, n=6).
In this experiment, the positive control drug (PFD) was given to rats by gavage twice a day, which was started on the day of modeling, and administered continuously for 14 days. The test compound (Slit2D2(C386S)-HSA) was given intravenously once every other day, which was started on the day of modeling, and a total of seven doses were administered (as shown in table 6).
Physiological observation of the experimental animals: changes in body weight of the animals were measured (body weight was measured once a day before administration); and the death rate of animals during the test period was monitored.
Animals were euthanized 24 hours after the last administration on the 14th day of modeling. After confirming the death of the animals, the left lung was fixed by intrapulmonary infusion of formalin, and the volume and weight of the left lung after perfusion were measured for relevant examination of the pulmonary pathology.
General pathological examination: After the perfusion with an equal amount of formalin in the left lung, the wet weight of left lung after perfusion was weighed/recorded with a micro-balance; and the volume of left lung after perfusion was measured and recorded using a micro-measuring cup.
Pathological examination of lung tissue: The whole lung was dehydrated. Lung paraffin sections were made with paraffin blocks. […] HE staining and Masson Trichrome staining were performed according to pathological staining SOP, and whole section scanning was performed using a Digital Pathscope slice scanner. Pathological analysis and scoring of changes in damage and inflammation of terminal bronchioles and accompanying small pulmonary artery at the periphery of the lesions (as shown in Tables 7 and 8 and FIG. 7) were performed using the HE-stained sections. Lesion area calculation, lesion pathology analysis and scoring were performed with the Masson Trichrome-stained sections (as shown in Table 9 and FIG. 8).
The mean±sd or mean±sem was calculated using the graphpad prism software, and the significant difference test was performed using t-test, one-way ANOVA and two-way ANOVA test. A significant difference between the two groups was considered at p<0.05.

The next series concerns the target T1, Robo1 protein (Homo sapiens, UniProt Q9Y6N7).
T1 construct: purchased ORIGEN TP327713
The series is described as follows: Affinity of the fusion protein to receptor Robo1 determined by SPR. The series is classed as binding. Particulars: Robo1 bound to CM5 chip. The method, then:
The affinity constant between the protein and Robo1 protein was detected by SPR (Surface Plasmon resonance BIAcore 200) method. The Robo1 protein (ORIGEN, Art. No.: TP327713) was bound to a CM5 chip, and the interaction between the fusion protein Slit2D2(C386S)-HSA (prepared in Example 1), Slit2D2-HSA (as disclosed in Patent Application PCT/CN2015/092079), and the receptor protein Robo1 were analyzed. Kinetic measurements were performed according to the method referred by Canziani et al. (2004, Anal. Biochem. 325: 301-307). Furthermore, the affinity of the Slit2N protein (Slit2N is a protein having a molecular weight of about 120 kDa at the N-terminus of the Slit2 protein) to Robo1 protein was also determined by the same method.
Background: Surface plasmon resonance follows binding to a sensor surface in real time, without labels.

T1 sequence (Q9Y6N7 26-1651): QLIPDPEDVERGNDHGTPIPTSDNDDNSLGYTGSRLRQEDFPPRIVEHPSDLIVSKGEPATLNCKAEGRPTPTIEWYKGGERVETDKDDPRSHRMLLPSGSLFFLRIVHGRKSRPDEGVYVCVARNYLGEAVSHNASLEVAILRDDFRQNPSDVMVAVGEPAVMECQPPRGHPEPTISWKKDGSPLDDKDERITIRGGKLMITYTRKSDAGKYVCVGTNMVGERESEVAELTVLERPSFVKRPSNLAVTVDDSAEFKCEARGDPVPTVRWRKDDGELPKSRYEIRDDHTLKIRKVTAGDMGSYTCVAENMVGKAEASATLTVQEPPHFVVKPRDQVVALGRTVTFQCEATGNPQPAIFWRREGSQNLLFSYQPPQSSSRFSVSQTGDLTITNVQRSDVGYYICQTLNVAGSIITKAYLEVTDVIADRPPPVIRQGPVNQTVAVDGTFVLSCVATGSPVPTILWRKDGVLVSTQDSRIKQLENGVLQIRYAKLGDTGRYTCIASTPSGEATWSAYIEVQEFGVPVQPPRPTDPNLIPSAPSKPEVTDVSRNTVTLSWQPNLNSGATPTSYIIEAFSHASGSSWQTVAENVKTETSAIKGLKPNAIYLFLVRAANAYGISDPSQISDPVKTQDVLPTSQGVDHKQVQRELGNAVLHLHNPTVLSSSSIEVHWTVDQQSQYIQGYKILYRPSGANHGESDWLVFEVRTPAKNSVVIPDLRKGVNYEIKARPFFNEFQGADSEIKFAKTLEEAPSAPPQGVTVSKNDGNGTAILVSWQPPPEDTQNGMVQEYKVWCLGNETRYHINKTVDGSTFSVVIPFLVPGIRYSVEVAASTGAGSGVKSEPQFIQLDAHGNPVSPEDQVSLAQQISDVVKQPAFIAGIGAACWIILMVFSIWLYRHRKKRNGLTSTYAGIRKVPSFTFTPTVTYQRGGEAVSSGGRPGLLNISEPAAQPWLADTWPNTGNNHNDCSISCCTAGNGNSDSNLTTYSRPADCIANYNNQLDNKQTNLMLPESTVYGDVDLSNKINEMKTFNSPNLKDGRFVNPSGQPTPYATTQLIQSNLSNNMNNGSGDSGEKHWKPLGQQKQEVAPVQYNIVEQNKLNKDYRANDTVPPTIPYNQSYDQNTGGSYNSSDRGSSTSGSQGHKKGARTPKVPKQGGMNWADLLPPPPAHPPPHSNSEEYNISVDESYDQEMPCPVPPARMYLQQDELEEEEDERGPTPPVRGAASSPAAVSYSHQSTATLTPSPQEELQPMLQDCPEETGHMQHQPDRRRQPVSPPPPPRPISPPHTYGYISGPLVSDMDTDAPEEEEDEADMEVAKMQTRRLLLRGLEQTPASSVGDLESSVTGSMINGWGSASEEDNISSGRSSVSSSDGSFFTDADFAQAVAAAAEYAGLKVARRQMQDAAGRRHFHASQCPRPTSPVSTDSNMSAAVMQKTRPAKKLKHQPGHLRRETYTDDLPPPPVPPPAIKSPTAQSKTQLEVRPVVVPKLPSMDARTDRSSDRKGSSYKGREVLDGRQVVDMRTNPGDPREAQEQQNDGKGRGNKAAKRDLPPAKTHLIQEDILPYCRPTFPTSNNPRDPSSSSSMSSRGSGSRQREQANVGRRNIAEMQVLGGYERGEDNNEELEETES

For `Cc1ccc(=O)n(-c2ccccc2)c1` [PFD, Pirfenidone, reference compound], the “body weight of the animals (Mean ± SEM)” value in the series with pulmonary fibrosis model (Day 1) came to 279.4 ± 2.3; in the series with pulmonary fibrosis model (Day 3), 261.8 ± 3.9; in the series with pulmonary fibrosis model (Day 5), 265.0 ± 6.4; with pulmonary fibrosis model (Day 7), 282.9 ± 7.4; in the series on pulmonary fibrosis model (Day 9), 298.4 ± 8.0; with pulmonary fibrosis model (Day 11), 312.6 ± 8.8. Also, in the series on pulmonary fibrosis model (Day 13), the “body weight of the animals (Mean ± SEM)” value worked out at 321.7 ± 8.3. In the series with pulmonary fibrosis model (continuous administration for 14 days, 50 mg/kg PO BID), the “inhibition on the progression of pulmonary fibrosis” value was “significant inhibition”.

B1: Slit2N: Protein having a molecular weight of about 120 kDa at the N-terminus of the Slit2 protein (protein)
chain: QCSCSGSTVDCHGLALRSVPRNIPRNTERLDLNGNNITRITKTDFAGLRHLRVLQLMENKISTIERGAFQDLKELERLRLNRNHLQLFPELLFLGTAKLYRLDLSENQIQAIPRKAFRGAVDIKNLQLDYNQISCIEDGAFRALRDLEVLTLNNNNITRLSVASFNHMPKLRTFRLHSNNLYCDCHLAWLSDWLRQRPRVGLYTQCMGPSHLRGHNVAEVQKREFVCSGHQSFMAPSCSVLHCPAACTCSNNIVDCRGKGLTEIPTNLPETITEIRLEQNTIKVIPPGAFSPYKKLRRIDLSNNQISELAPDAFQGLRSLNSLVLYGNKITELPKSLFEGLFSLQLLLLNANKINCLRVDAFQDLHNLNLLSLYDNKLQTIAKGTFSPLRAIQTMHLAQNPFICDCHLKWLADYLHTNPIETSGARCTSPRRLANKRIGQIKSKKFRCSAKEQYFIPGTEDYRSKLSGDCFADLACPEKCRCEGTTVDCSNQKLNKIPEHIPQYTAELRLNNNEFTVLEATGIFKKLPQLRKINFSNNKITDIEEGAFEGASGVNEILLTSNRLENVQHKMFKGLESLKTLMLRSNRITCVGNDSFIGLSSVRLLSLYDNQITTVAPGAFDTLHSLSTLNLLANPFNCNCYLAWLGEWLRKKRIVTGNPRCQKPYFLKEIPIQDVAIQDFTCDDGNDDNSCSPLSRCPTECTCLDTVVRCSNKGLKVLPKGIPRDVTELYLDGNQFTLVPKELSNYKHLTLIDLSNNRISTLSNQSFSNMTQLLTLILSYNRLRCIPPRTFDGLKSLRLLSLHGNDISVVPEGAFNDLSALSHLAIGANPLYCDCNMQWLSDWVKSEYKEPGIARCAGPGEMADKLLLTTPSKKFTCQGPVDVNILAKCNPCLSNPCKNDGTCNSDPVDFYRCTCPYGFKGQDCDVPIHACISNPCKHGGTCHLKEGEEDGFWCICADGFEGENCEVNVDDCEDNDCENNSTCVDGINNYTCLCPPEYTGELCEEKLDFCAQDLNPCQHDSKCILTPKGFKCDCTPGYVGEHCDIDFDDCQDNKCKNGAHCTDAVNGYTCICPEGYSGLFCEFSPPMVLPR
Regarding B1, the “Ka” value with Robo1 protein is 743600 M⁻¹ s⁻¹.
